Literature values in patent US11406849B2, “Amino alcohol-containing skin cleansing composition for removing keratotic plugs from skin” (KAO CORPORATION, priority 2017, dated 2022).

Row | SMILES | Solubility in water
1 | NC(CO)(CO)CO [Component (X1), 2-amino-2-hydroxymethyl-1,3-propanediol] | readily dissolved in water
2 | CC(C)(N)CO [Component (X2), 2-amino-2-methyl-1-propanol] | readily dissolved in water
